From patent US20260199284A1, “SPECIFIC VASH COMPOUNDS (SVC) INHIBITORS FOR HEART DISEASES” (MT ACT, priority 2023, published 2026)
Entries after “also recorded” stand apart in the source; their conditions may differ.

Columns and labels:
[1] = molecular target: T1, Human rhinovirus (HRV) type 14 3C protease (Human rhinovirus 14, UniProt P03303); assay: HRV type 14 3C protease assay; assay type: biochemical; settings: increasing dose
T1 construct: Assay using active recombinant Human rhinovirus (HRV) type 14 3C protease
T1 sequence (P03303 1538-1719): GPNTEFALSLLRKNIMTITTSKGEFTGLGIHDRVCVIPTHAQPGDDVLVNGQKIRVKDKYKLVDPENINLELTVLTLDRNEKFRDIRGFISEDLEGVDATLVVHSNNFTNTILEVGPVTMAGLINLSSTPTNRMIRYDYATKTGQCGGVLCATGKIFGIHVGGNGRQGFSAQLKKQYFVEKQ
Excerpt: FIG. 7: Assay using active recombinant Human rhinovirus (HRV) type 14 3C protease Cysteine in absence (neg) or presence (increasing dose) of SVC_01. HRV is a protease with preference for non-aromatic residues at P1′. The optimum recognition site for Human rhinovirus (HRV) type 14 3C protease is LEVLFQ/GP, with a glycine at the P1′ position.
Below, the criteria for selection are detailed: • Protease with documented carboxypeptidase activity towards alpha tubulin. Carboxypeptidase A hydrolyzes peptide bonds of C-terminal residues with aromatic or aliphatic side-chains (FIG. 6). • Cysteine protease with preference for non-aromatic residues at P1′. The optimum recognition site for Human rhinovirus (HRV) type 14 3C protease is LEVLFQ/GP, with a glycine at the P1′ position (FIG. 7). • Cysteine protease with preference for aromatic residues at P1′ site. Alike VASH, cathepsin B prefers an aromatic residue at the P1′ position. This is considered to be our best control for specificity (FIG. 8)

[2] = tested on: primary cardiomyocytes isolated from healthy Sprague Dawley rats; assay: Unloaded shortening contractility of healthy isolated cardiomyocytes; assay type: cell-based; settings: healthy rat cardiomyocytes
Method: FIG. 13: Dose-dependent modest improvement in contraction and relaxation kinetics during unloaded shortening upon VASH inhibition in primary cardiomyocytes isolated from healthy Sprague Dawley rats. A) Resting sarcomere length, B) fractional shortening, C) contraction time and D) relaxation time in healthy isolated rat cardiomyocytes. n=50-60 myocytes per group from N=3 Sprague Dawley rats. One-way ANOVA.
Contractility was measured in a custom-fabricated cell chamber (IonOptix) mounted on an LSM Zeiss 880 inverted confocal microscope using either a 40 or 63× oil 1.4 numerical aperture objective and transmitted light camera (IonOptix MyoCam-S). Experiments were conducted at room temperature and field stimulation was provided at 1.0 Hz with a cell stimulator (MyoPacer, IonOptix). After 10-30 seconds of pacing to achieve steady state, five traces were recorded and analyzed. Sarcomere length was measured optically by Fourier transform analysis (IonWizard, IonOptix).

[3] = tested on: primary cardiomyocytes isolated from ZSF1-Lean or ZSF1 Obese rats; assay: Nanoindentation transverse stiffness; assay type: cell-based, rat
Excerpt: FIG. 17: Reduced transverse stiffness upon VASH inhibition or TTL overexpression in primary cardiomyocytes isolated from ZSF1-Lean or ZSF1 Obese rats. A) Stiffness (elastic modulus) plotted as a function of nanoindentation velocity in ZSF1-Lean and B) ZSF1-Obese myocytes. C) Quantification of Emin (elastic stiffness), Emax (stiffness at maximal velocity of indentation) and D) DeltaE (indicator of viscoelasticity) in ZSF1-Lean and Obese cardiomyocytes.
Mechanical properties at the microscopic scale were measured using nano-indentation (Piuma; Optics11, Amsterdam, The Netherlands) equipped with a dynamic mechanical analysis package (DMA). Freshly isolated cardiomyocytes were attached to glass-bottom dishes coated with MyoTak (IonOptix) in NT solution at 1 mM Ca2+. A spherical indentation probe with a radius of 4.5 μm and a stiffness of 0.1 N/m was used to indent the myocytes to a depth of 1-2 μm and the probe was then oscillated in a sinusoidal pattern at a frequency of 0.05, 0.1, 0.5, 1, 2, 5, 10, 20 and 50 Hz and an amplitude of 1 μm. The Piuma Data Viewer version 2.0 was used to convert DMA indentation depth and cantilever deflection into E′ and E″ and the magnitude of the elastic modulus was determined by E^2=E′^2+E″^2 A Poisson's ratio (n) of 0.5 was assumed and the average of E in each experimental condition was determined as a function of indentation speed. […]

[4] = tested on: primary cardiomyocytes isolated from ZSF1-Lean or ZSF1 Obese rats; assay: Cardiomyocyte stretch longitudinal stiffness; assay type: cell-based, rat; settings: 10% strain
Method: FIG. 18: Reduced longitudinal stiffness upon VASH inhibition in primary cardiomyocytes isolated from ZSF1-Lean or ZSF1 Obese rats. A) Diastolic Stiffness (elastic modulus at the initial time of peak strain) upon a 10%, 200 ms strain along the long-axis of an isolated cardiomyocyte; B) Stead state stiffness upon strain and hold, and C) stress relaxation (indicator of viscoelasticity) in ZSF1-Lean and Obese cardiomyocytes.
Either freshly isolated or cultured myocytes were diluted to a sparse density (~10×) into a large (22×50 mm) glass bottom petri dish coated with BSA to prevent myocyte adhesion with Normal Tyrodes solution. A small aliquot of Myotak™ was freshly thawed and a 1.5 uL droplet was placed in a dry area of the petri dish and allowed to polymerize (2-3 min). When the droplet had become “tacky” laser etched glass rods (Ion Optix LLC) were lowered into the solution several times to create a thin coating of Myotak which was allowed to dry for 90 seconds before the probes were submersed into the cell-containing bath. […] The Myostretcher apparatus (Ion Optix LLC) was used to stretch myocytes by roughly 10% over either a 200 ms (diastolic) or 5 s (slow) interval while force and sarcomere length were recorded using the Ion Wizard software and MyoCam imaging system (live FFT). […]

[5] = tested on: human adult cardiomyocytes; assay: Western blot of tubulin detyrosination and acetylation in human adult cardiomyocytes; assay type: cell-based
Method: FIG. 33: human adult cardiomyocytes are treated with vehicle or SVC-01 (inhibitor). Protein lysates are analysed by western blot to evaluate the level of tubulin detyrosination and acetylation.
Specificity of SVC-01 was assayed using both human VASH1 and VASH2 recombinant enzymes. […] Finally, to ensure that regulation of other genes involved in the detyrosination-tyrosination cycle is not affected, we analysed gene expression of all relevant and associated genes following treatment with SVC-02 in adult human cardiomyocytes. We found no alteration of VASH1, VASH2, MATCAP, TTL or SVBP gene expression between vehicle control and SVC-02 treated cells (FIG. 34).

## O=C(O)CCC[C@H](NC(=O)[C@H]1O[C@@H]1C(=O)C[C@@H](Cc1ccc(OCc2ccccc2)cc1)C(=O)O)C(=O)NCCc1ccccc1 [SVC_01]
[1]
  inhibition of HRV type 14 3C protease: does not reduce activity
[2]
  contraction and relaxation times: dose-dependent and statistically significant improvements
[3]
  transverse viscoelastic stiffness: viscoelastic stiffness is reduced
[4]
  viscoelastic longitudinal stiffness: viscoelastic longitudinal stiffness is reduced
[5]
  level of tubulin acetylation: did not affect the level of tubulin acetylation; also recorded: remained unchanged
  level of tubulin detyrosination: significantly reduces the level of tubulin detyrosination; also recorded: significant reduction of tubulin detyrosination
